Laboratory results: US6696495B2, “Treatment of disorders secondary to organic impairments” (Snowden Pharmaceuticals, LLC, priority 1998, dated 2004)
Read-outs that look alike come from different tables or passages of the source.

Legend:
[1] = test system: Tourette's Tics, Asocial Behavior, and Relief of Hyposexuality; details: for response to other medications: before sibutramine
[2] = test system: Reflex Sympathetic Dystrophy Syndrome (RSDS); Complex Regional Pain Syndrome (CRPS); assay: Case history 27; assay type: in vivo, human
[3] = test system: Severe Atypical Psychosis; assay: Case history 1, Sibutramine Patient No. 97; assay type: in vivo, human
[4] = test system: Non-Tourette's tics, obsessive-compulsive rituals, and attention deficit hyperactive disorder (ADHD); details: before sibutramine
[5] = test system: Sexual Function, ADD, and Rage Outbursts; assay: Case history 3, Sibutramine Patient No. 100; assay type: in vivo, human
[6] = test system: Sexual Obsessive-Compulsive Behavior, ADD and Executive Function; assay: Case history 6, Sibutramine Patient No. 77; assay type: in vivo, human; details: before sibutramine
[7] = test system: Severe Post-Traumatic Stress Reaction
Method: Finally, this patient was taken off of fluoxetine 20 mg when sibutramine treatment was initiated.

[8] = test system: Asocial Behavior, Violence, and Hyposexuality; assay: Case history 10, Sibutramine Patient No. 54; assay type: in vivo, human; details: before sibutramine
[9] = test system: Tourette's Disease Tics, Violence, and ADHD; assay: Case history 8, Sibutramine Patient No. 47; assay type: in vivo, human
[10] = test system: Sexual Gender Choice Change; assay: Case history 7, Sibutramine Patient No. 99; assay type: in vivo, human
[11] = test system: frontal lobe executive function, ADHD, and hyposexuality; details: human, in vivo
Huntington's Disease = assay: Case history 12, Sibutramine Patient No. 113; assay type: in vivo, human; details: after worsening of symptoms
Sexual Function and ADD = assay: Case history 4, Sibutramine Patient No. 109; assay type: in vivo, human; details: before sibutramine
[12] = test system: Fibromyalgia—Chronic Fatigue Syndrome; details: before sibutramine
[13] = mood swings, cognitive, anger, sexual problems, before sibutramine
[14] = over six years before sibutramine
[15] = depression, impulsive behaviors, mood swings, epileptic symptoms

CN1CCN(C2=Nc3cc(Cl)ccc3Nc3ccccc32)CC1 [Clozapine]
fall of IQ ([1]; human, in vivo): 30 points

CN(C)CCC=C1c2ccccc2CCc2ccccc21 [Elavil]
response to other treatments ([2]; before sibutramine): helped their sleep and slightly increased their appetite but did not affect the pain

NCC1(CC(=O)O)CCCCC1 [Neurontin]
response to other treatments ([2]; before sibutramine): ineffective

NC12CC3CC(CC(C3)C1)C2 [amantadine]
response of psychosis symptoms to other medications ([3]; treatments before sibutramine): without success

CC(N)Cc1ccccc1 (stereo not drawn) [amphetamine]
response to other medications [4]: helped their hyperactivity and OCD symptoms in part

CC(NC(C)(C)C)C(=O)c1cccc(Cl)c1 (stereo not drawn) [bupropion]
response to other medications [5, 13]: unsuccessful | response to other medications [6]: unsuccessful

O=C1CC2(CCCC2)CC(=O)N1CCCCN1CCN(c2ncccn2)CC1 [buspirone]
response of psychosis symptoms to other medications ([3]; treatments before sibutramine): without success | response of PTSD symptoms to other medications ([7]; human, in vivo): unsuccessful

OC(O)C(Cl)(Cl)Cl [chloral hydrate]
response to other medications [8]: without any changes in their speech or mode of communication

CN(C)CCCN1c2ccccc2CCc2ccc(Cl)cc21 [clomipramine]
response to other medications [1]: without success | response to other medications [9, 14]: without any good results

Clc1cccc(Cl)c1N=C1NCCN1 [clonidine]
response to other medications [9, 14]: without any good results

CNCCCN1c2ccccc2CCc2ccccc21 [desipramine]
response to other medications [9, 14]: without any good results | response to other medications [5, 13]: not helpful

CCN[C@@H](C)Cc1cccc(C(F)(F)F)c1 [dextrofenfluramine]
response to other medications [1]: without success

COc1cc2c(cc1OC)C(=O)C(CC1CCN(Cc3ccccc3)CC1)C2 (stereo not drawn) [donepezil]
response to other medications [1]: without success | response to other medications [9, 14]: helped their cognitive problems without aggravating their tics or their outbursts | response to other medications [5, 13]: not helpful | response to other medications [4]: unsuccessful | response to other medications [10, 15]: refractory | response to other medications [11]: unsuccessful

NC(=O)OCC(COC(N)=O)c1ccccc1 [felbamate]
response to other medications [1]: without success | response to other medications [9, 14]: without any good results

CCNC(C)Cc1cccc(C(F)(F)F)c1 (stereo not drawn) [fenfluramine]
response to other medications [1]: without success | response to other medications [8]: without any changes in their speech or mode of communication | response to other medications [9, 14]: without any good results | response to other medications [5, 13]: not helpful | response of PTSD symptoms to other medications ([7]; before sibutramine): unsuccessful

OCCN1CCN(CCCN2c3ccccc3Sc3ccc(C(F)(F)F)cc32)CC1 [fluphenazine]
response to other medications [1]: without success

COCCCC/C(=N\OCCN)c1ccc(C(F)(F)F)cc1 [fluvoxamine]
response to other medications [1]: without success | response to other medications [4]: helped their hyperactivity and OCD symptoms in part

NCC1(CC(=O)O)CCCCC1 [gabapentin]
response to previous medications (Huntington's Disease): no longer responded | response to other medications [1]: without success | response to other medications [9, 14]: without any good results | response to other medications [10, 15]: refractory

O=C(CCCN1CCC(O)(c2ccc(Cl)cc2)CC1)c1ccc(F)cc1 [haloperidol]
response to other medications [1]: without success | response to other medications [8]: without any changes in their speech or mode of communication | response of psychosis symptoms to other medications ([3]; treatments before sibutramine): without success | response to other medications [6]: unsuccessful

OCCOCCN1CCN(C(c2ccccc2)c2ccc(Cl)cc2)CC1 (stereo not drawn) [hydroxyzine]
response to other medications [9, 14]: without any good results

CN(C)CCCN1c2ccccc2CCc2ccccc21 [imipramine]
response to other medications [5, 13]: unsuccessful | response to other medications [10, 15]: refractory

Nc1nnc(-c2cccc(Cl)c2Cl)c(N)n1 [lamotrigine]
response to other medications [1]: without success | response to other medications (Sexual Function and ADD): unsuccessful | response to other medications [9, 14]: without any good results | response to other medications [5, 13]: not helpful | response to other medications [4]: without success | response to other medications [11]: unsuccessful

CCN(CC)CC(=O)Nc1c(C)cccc1C [lidocaine]
response to other treatments ([2]; in vivo): numbed the area

O=C([O-])[O-].[Li+].[Li+] [lithium carbonate]
response to other medications ([5]; human, in vivo): unsuccessful and made their obesity worse | response to other medications ([10]; human, in vivo): refractory

O=C1Nc2ccc(Cl)cc2C(c2ccccc2Cl)=NC1O (stereo not drawn) [lorazepam]
response of psychosis symptoms to other medications ([3]; treatments before sibutramine): without success

COc1ccc2cc(CCC(C)=O)ccc2c1 [nabumetone]
response to other medications [12]: unsuccessfully

CC(C)(C)NCC(O)COc1cccc2c1CC(O)C(O)C2 (stereo not drawn) [nadolol]
response to other medications [8]: without any changes in their speech or mode of communication

CNCCC=C1c2ccccc2CCc2ccccc21 [nortriptyline]
response to other medications ([5]; human, in vivo): unsuccessful

O=C(O)CCc1nc(-c2ccccc2)c(-c2ccccc2)o1 [oxaprozin]
response to other medications [12]: unsuccessfully

NC(=O)N1c2ccccc2CC(=O)c2ccccc21 [oxcarbazepine]
response of PTSD symptoms to other medications ([7]; before sibutramine): unsuccessful

Fc1ccc([C@@H]2CCNC[C@H]2COc2ccc3c(c2)OCO3)cc1 [paroxetine]
response of psychosis symptoms to other medications ([3]; treatments before sibutramine): without success

NC1=NC(=O)C(c2ccccc2)O1 (stereo not drawn) [pemoline]
response of PTSD symptoms to other medications ([7]; before sibutramine): unsuccessful

CC(C)(N)Cc1ccccc1 [phenteramine]
response to other medications [5, 13]: helped them lose a small amount of weight but did not affect their other problems

O=C1NC(=O)C(c2ccccc2)(c2ccccc2)N1 [phenytoin]
response to other medications [9, 14]: without any good results | response of PTSD symptoms to other medications ([7]; before sibutramine): unsuccessful

CC(C)NCC(O)COc1cccc2ccccc12 (stereo not drawn) [propranolol]
response to other medications [8]: without any changes in their speech or mode of communication | response to other medications (Sexual Function and ADD): unsuccessful | response to other medications [9, 14]: without any good results

OCCOCCN1CCN(C2=Nc3ccccc3Sc3ccccc32)CC1 [quetiapine]
response to other medications [8]: without any changes in their speech or mode of communication | response to other medications [9, 14]: without any good results | response of psychosis symptoms to other medications ([3]; treatments before sibutramine): did not control their symptoms

Cc1nc2n(c(=O)c1CCN1CCC(c3noc4cc(F)ccc34)CC1)CCCC2 [risperidone]
response to other medications ([9]; human, in vivo): without any good results | response of psychosis symptoms to other medications ([3]; human, in vivo): without success

CCCN(CCC)CCc1cccc2c1CC(=O)N2 [ropinirole]
response to other medications [4]: unsuccessful

C#CCN(C)[C@H](C)Cc1ccccc1 [selegiline]
response to other medications [1]: without success | response to other medications [9, 14]: without any good results | response to other medications [5, 13]: not helpful | response to other medications [11]: unsuccessful

CN[C@H]1CC[C@@H](c2ccc(Cl)c(Cl)c2)c2ccccc21 [sertraline]
response to other medications [10, 15]: refractory

CCCc1nn(C)c2c(=O)[nH]c(-c3cc(S(=O)(=O)N4CCN(C)CC4)ccc3OCC)nc12 [sildenafil]
response to other medications (Sexual Function and ADD): only increased sexual function but not libido | response to other medications [5, 13]: did not help their sexual libido | response to other medications [11]: helped correct the mechanical dysfunction but not the libido

Nc1c2c(nc3ccccc13)CCCC2 [tacrine]
response to other medications [1]: without success | response to other medications [9, 14]: without any good results

CSc1ccc2c(c1)N(CCC1CCCCN1C)c1ccccc1S2 (stereo not drawn) [thioridazine]
response to other medications [8]: without any changes in their speech or mode of communication

N[C@@H](Cc1cc(I)c(Oc2cc(I)c(O)c(I)c2)c(I)c1)C(=O)O [thyroxine]
response to other medications [5, 13]: not helpful

COc1cccc(C2(O)CCCCC2CN(C)C)c1 (stereo not drawn) [tramadol]
response to other medications [12]: unsuccessfully

CN1CCN(CCCN2c3ccccc3Sc3ccc(C(F)(F)F)cc32)CC1 [trifluoperazine]
response of psychosis symptoms to other medications ([3]; treatments before sibutramine): without success

CCCC(CCC)C(=O)O [valproic acid]
response to other medications [1]: without success | response to other medications (Sexual Function and ADD): helped their anger attacks but interfered with their concentration considerably and did not help their sexual problems | response to other medications [9, 14]: without any good results | response to other medications [5, 13]: not helpful | response to other medications [6]: unsuccessful | response of PTSD symptoms to other medications ([7]; before sibutramine): unsuccessful

COC(=O)[C@@H]1[C@H]2C[C@H]3c4[nH]c5ccccc5c4CCN3C[C@@H]2CC[C@@H]1O [yohimbine]
response to other medications (Sexual Function and ADD): unsuccessful
